Measurements published in patent US5571808A, “Method for treating smoking-related bone loss” (Eli Lilly and Company, priority 1995, dated 1996).

Key:
[1] = system: ovariectomized (ovex) rats; assay: Femur bone density in ovariectomized rats (model of post-menopausal osteoporosis); type: in vivo, Sprague Dawley rats; details: for inhibition in vivo at 1 mg/kg: Rattus norvegicus, 840 h, 1 mg/kg oral, relative to estrogen treated and untreated ovex animals, read-out: % Inhibition of Bone Loss; for Prevention of bone loss (in words): oral, femur density
Procedure: A model of post-menopausal osteoporosis was used in which effects of different treatments upon femur density were determined. Seventy-five day old female Sprague Dawley rats (weight range of 225 g to 275 g) were obtained from Charles River Laboratories (Portage, Mich.). They were housed in groups of 3 and had ad libitum access to food (calcium content approximately 1%) and water. Room temperature was maintained at 22.2°±1.7° C. with a minimum relative humidity of 40%. The photoperiod in the room was 12 hours light and 12 hours dark.
The right femurs were excised and scanned at the distal metaphysis 1 mm from the patellar groove with single photon absorptiometry. Results of the densitometer measurements represent a calculation of bone density as a function of the bone mineral content and bone width.
Results are reported as the mean of measurements from thirty rats ± the standard error of the mean.
Accordingly, each point reflects the responses of thirty rats and depicts a typical dose response curve for raloxifene in this model. Results are reported as the mean ± the standard error of the mean.
Other compounds of formula I were administered orally in the rat assay described in Example 1.

[2] = system: bone loss in postmenopausal women; details: cited from earlier work

Molecule | inhibition in vivo at 1 mg/kg [1] | Prevention of bone loss (in words) [1] | further results
COc1ccc(-c2sc3cc(OC)ccc3c2C(=O)c2ccc(OCCN3CCCCC3)cc2)cc1 [Compound 18] | 26% |  | 
estrogen |  |  | Disorders implicated in long-term estrogen therapy (in words) ([2]; long-term therapy, postmenopausal women): increased risk of uterine and breast cancer; Protective effects of estrogen therapy on bone (in words) ([2]; women smokers (Kiel et al.)): eliminated for women smokers
C#C[C@]1(O)CC[C@H]2[C@@H]3CCc4cc(O)ccc4[C@H]3CC[C@@]21C [EE2, ethynyl estradiol] |  | prevented this loss of bone in a dose dependent manner | 
O=C(c1ccc(OCCN2CCCCC2)cc1)c1c(-c2ccc(O)cc2)sc2cc(O)ccc12 [raloxifene, 6-hydroxy-2-(4-hydroxyphenyl)-3-[4-(2-piperidinoethoxy)benzoyl]benzo[b]thiophene] |  | prevented bone loss in a dose dependent manner | 
O=C(Oc1ccc(-c2sc3cc(OC(=O)c4ccccc4)ccc3c2C(=O)c2ccc(OCCN3CCCCC3)cc2)cc1)c1ccccc1 [Compound 12] | 60% |  | 
O=C(c1ccc(OCCN2CCCC2)cc1)c1c(-c2ccc(O)cc2)sc2cc(O)ccc12 [Compound 16] | 25% |  | 
